Data reported in patent US20220288057A1, “CONJOINT THERAPY FOR TREATING SEIZURE DISORDERS” (XENON PHARMACEUTICALS INC., priority 2021, published 2022).
Several values for one entry are separate records, joined by “and”; a condition that tells them apart may be missing. Equal entries are not always repeated.

Experiment: Plasma and brain concentrations after MES testing (UHPLC-ESI-MS/MS);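 further: brain and plasma were sampled from mice right after the efficacy test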
Conditions: for concentration at 2 h / concentration at 0.5 h: in vivo
[1] = Compound A 0.25 mg/kg PO 2 h alone (phenytoin study), 0.25 mg/kg
[2] = Compound A 0.75 mg/kg PO 2 h alone (phenytoin study), 0.75 mg/kg
[3] = Compound A 1 mg/kg PO 2 h alone (levetiracetam study), 1 mg/kg
[4] = Compound A 1 mg/kg PO 2 h alone (phenytoin study), 1 mg/kg
[5] = Compound A 1 mg/kg PO 2 h alone (valproic acid study), 1 mg/kg
[6] = Compound A 2.5 mg/kg PO 2 h alone (phenytoin study), 2.5 mg/kg
[7] = analyte Compound A, 0.25 mg/kg + 2 mg/kg Phenytoin
[8] = analyte Compound A, 0.75 mg/kg + 2 mg/kg Phenytoin
[9] = analyte Compound A, 1 mg/kg + 2 mg/kg Phenytoin
[10] = analyte Compound A, 1 mg/kg PO + 100 mg/kg Valproic Acid IP
[11] = analyte Compound A, 2.5 mg/kg + 2 mg/kg Phenytoin

Cc1cc(N2CCc3cc(F)ccc3C2)cc(C)c1NC(=O)CC(C)(C)C [Compound A, N-[4-(6-fluoro-3,4-dihydro-1H-isoquinolin-2-yl)-2,6-dimethylphenyl]-3,3-dimethylbutanamide]
concentration at 2 h (CF-1, mouse, po, 4 mg/kg, Concentration Plasma, Compound A 4 mg/kg PO, 2 hr): 83 ng/mL
concentration at 0.5 h (CF-1, mouse, po, 8 mg/kg, Concentration Brain, Compound A 8 mg/kg PO single dose, tissue collection 0.5 hr): 1090 nM
concentration at 2 h (CF-1, mouse, po, 8 mg/kg, Concentration Brain, Compound A 8 mg/kg PO single dose, tissue collection 2 hr): 560 nM
concentration at 0.5 h (CF-1, mouse, po, 8 mg/kg, Concentration Brain, Compound A 8 mg/kg PO, 0.5 hr): 402 ng/g
concentration at 2 h (CF-1, mouse, po, 8 mg/kg, Concentration Brain, Compound A 8 mg/kg PO, 2 hr): 208 ng/g
concentration at 0.5 h (CF-1, mouse, po, 8 mg/kg, Concentration Plasma, Compound A 8 mg/kg PO single dose, tissue collection 0.5 hr): 710 nM
concentration at 2 h (CF-1, mouse, po, 8 mg/kg, Concentration Plasma, Compound A 8 mg/kg PO single dose, tissue collection 2 hr): 430 nM
concentration at 0.5 h (CF-1, mouse, po, 8 mg/kg, Concentration Plasma, Compound A 8 mg/kg PO, 0.5 hr): 261 ng/mL
concentration at 2 h (CF-1, mouse, po, 8 mg/kg, Concentration Plasma, Compound A 8 mg/kg PO, 2 hr): 158 ng/mL
Brain concentration, Mean [1]: 40 nM
Plasma concentration, Mean [1]: 0.01 μM and 4.3 ng/mL
Brain concentration, Mean [2]: 120 nM
Plasma concentration, Mean [2]: 0.03 μM and 11.7 ng/mL
Brain concentration, Mean [3]: 60 nM
Plasma concentration, Mean [3]: 0.03 μM and 11.1 ng/mL
Brain concentration, Mean [4]: 90 nM
Plasma concentration, Mean [4]: 0.05 μM and 17.0 ng/mL
Brain concentration, Mean [5]: 160 nM
Plasma concentration, Mean [5]: 0.066 μM and 24 ng/mL
Concentration Plasma (Compound A 1 mg/kg PO single dose, tissue collection 2 hr, 1 mg/kg): 100 nM
Brain concentration, Mean [6]: 390 nM
Plasma concentration, Mean [6]: 45.1 ng/mL and 0.12 μM
Brain concentration, Mean [7]: 50 nM
Plasma concentration, Mean [7]: 0.02 μM and 5.6 ng/mL
Brain concentration, Mean [8]: 150 nM
Plasma concentration, Mean [8]: 0.04 μM and 16.0 ng/mL
Brain concentration, Mean [9]: 100 nM
Plasma concentration, Mean [9]: 0.05 μM and 19.0 ng/mL
Brain concentration, Mean [10]: 97 nM
Plasma concentration, Mean [10]: 0.042 μM and 15 ng/mL
Brain concentration, Mean [11]: 510 nM
Plasma concentration, Mean [11]: 58.4 ng/mL and 0.16 μM
concentration at 2 h (mouse, 1 mg/kg, plasma concentration, Compound A 1 mg/kg, mean±SEM, n=15): 66 ± 14 nM
concentration at 2 h (mouse, Brain concentration, Mean, analyte Compound A, 0.25 mg/kg + 2 mg/kg Phenytoin): 50 nM and 18.4 ng/g
concentration at 2 h (mouse, Brain concentration, Mean, analyte Compound A, 0.75 mg/kg + 2 mg/kg Phenytoin): 150 nM and 56.7 ng/g
concentration at 2 h (mouse, Brain concentration, Mean, analyte Compound A, 1 mg/kg + 2 mg/kg Phenytoin): 100 nM and 37 ng/g
concentration at 2 h (mouse, Brain concentration, Mean, analyte Compound A, 1 mg/kg PO + 100 mg/kg Valproic Acid IP): 97 nM and 36 ng/g
concentration at 2 h (mouse, Brain concentration, Mean, analyte Compound A, 2.5 mg/kg + 2 mg/kg Phenytoin): 510 nM and 186 ng/g
concentration at 2 h (mouse, Plasma concentration, Mean, analyte Compound A, 0.25 mg/kg + 2 mg/kg Phenytoin): 20 nM and 5.6 ng/mL
concentration at 2 h (mouse, Plasma concentration, Mean, analyte Compound A, 0.75 mg/kg + 2 mg/kg Phenytoin): 40 nM and 16 ng/mL
concentration at 2 h (mouse, Plasma concentration, Mean, analyte Compound A, 1 mg/kg + 2 mg/kg Phenytoin): 50 nM and 19 ng/mL
concentration at 2 h (mouse, Plasma concentration, Mean, analyte Compound A, 1 mg/kg PO + 100 mg/kg Valproic Acid IP): 42 nM and 15 ng/mL
concentration at 2 h (mouse, Plasma concentration, Mean, analyte Compound A, 2.5 mg/kg + 2 mg/kg Phenytoin): 160 nM and 58.4 ng/mL
concentration at 2 h (mouse, mean total brain concentration, analyte Compound A, 1 mg/kg PO + Valproic Acid 30 mg/kg IP): 75 nM and 28 ng/g
concentration at 2 h (mouse, mean total brain concentration, analyte Compound A, 1 mg/kg PO + Valproic Acid 56 mg/kg IP): 117 nM and 43 ng/g
concentration at 2 h (mouse, mean total plasma concentration, analyte Compound A, 1 mg/kg PO + Valproic Acid 30 mg/kg IP): 38 nM and 14 ng/mL
concentration at 2 h (mouse, mean total plasma concentration, analyte Compound A, 1 mg/kg PO + Valproic Acid 56 mg/kg IP): 18 ng/mL and 50 nM
concentration at 2 h (mouse, po, 0.25 mg/kg, Brain concentration, Mean, Compound A 0.25 mg/kg PO 2 h alone (phenytoin study)): 40 nM and 14.8 ng/g
concentration at 2 h (mouse, po, 0.25 mg/kg, Plasma concentration, Mean, Compound A 0.25 mg/kg PO 2 h alone (phenytoin study)): 10 nM and 4.3 ng/mL
concentration at 2 h (mouse, po, 0.75 mg/kg, Brain concentration, Mean, Compound A 0.75 mg/kg PO 2 h alone (phenytoin study)): 120 nM and 43.8 ng/g
concentration at 2 h (mouse, po, 0.75 mg/kg, Plasma concentration, Mean, Compound A 0.75 mg/kg PO 2 h alone (phenytoin study)): 11.7 ng/mL and 30 nM
concentration at 2 h (mouse, po, 1 mg/kg, Brain concentration, Mean, Compound A 1 mg/kg PO 2 h alone (levetiracetam study)): 60 nM and 20.9 ng/g
concentration at 2 h (mouse, po, 1 mg/kg, Brain concentration, Mean, Compound A 1 mg/kg PO 2 h alone (phenytoin study)): 100 nM and 35 ng/g
concentration at 2 h (mouse, po, 1 mg/kg, Brain concentration, Mean, Compound A 1 mg/kg PO 2 h alone (valproic acid study)): 160 nM and 59 ng/g
concentration at 2 h (mouse, po, 1 mg/kg, Plasma concentration, Mean, Compound A 1 mg/kg PO 2 h alone (levetiracetam study)): 30 nM and 11.1 ng/mL
concentration at 2 h (mouse, po, 1 mg/kg, Plasma concentration, Mean, Compound A 1 mg/kg PO 2 h alone (phenytoin study)): 50 nM and 17 ng/mL
concentration at 2 h (mouse, po, 1 mg/kg, Plasma concentration, Mean, Compound A 1 mg/kg PO 2 h alone (valproic acid study)): 66 nM and 24 ng/mL
concentration at 2 h (mouse, po, 2.5 mg/kg, Brain concentration, Mean, Compound A 2.5 mg/kg PO 2 h alone (phenytoin study)): 390 nM and 144 ng/g
concentration at 2 h (mouse, po, 2.5 mg/kg, Plasma concentration, Mean, Compound A 2.5 mg/kg PO 2 h alone (phenytoin study)): 120 nM and 45.1 ng/mL
